The values below come from patent US20190192510A1, “GPR119 AGONIST” (NIPPON CHEMIPHAR CO., LTD., priority 2010, published 2019).

Like-named read-outs stand apart in the source and are kept apart here.

For one data set, the system named is normal mice. Kind of data set: Oral glucose tolerance test in normal mice (Pharmacological Experiment 3). The format is in vivo. Here is the method:
Oral glucose tolerance is tested in normal mice.
In this experiment, the inhibitory effect of a test compound on glycemic excursions is examined after glucose administration in normal mice. The test methods are described below.
Male 9-week-old ICR mice, habituated to the experimental environment for two weeks, are fasted for 18 hours and used to this experiment. Mice are orally administered the analyte or vehicle (polyethylene glycol 400:ethanol:Tween 80=8:1:1). After 30 minutes, they were orally given glucose at the dose of 3 g/kg.
Blood is collected at just before the analyte or vehicle administration (−30 minutes), immediately before glucose challenge (0 minute), 20 minutes, 40 minutes, 60 minutes, and 120 minutes after glucose ingestion to determine blood glucose levels.
Inhibition rate (%) of the test compound versus vehicle in areas under the glycemic excursion curve between 0 minute and 120 minutes after glucose challenge is determined. […]
Blood was collected at just before the test compound or vehicle administration (−30 min), immediately before glucose challenge (0 min), 20 min, 40 min, 60 min and 120 min after glucose ingestion and then blood glucose levels were determined.
Inhibition rate (%) of the test compound versus vehicle in areas under the glycemic excursion curve between 0 and 120 min after glucose challenge was determined.

The next data set concerns the target T1, human GPR119 (Homo sapiens, UniProt Q8TDV5).
T1 sequence (Q8TDV5 1-335): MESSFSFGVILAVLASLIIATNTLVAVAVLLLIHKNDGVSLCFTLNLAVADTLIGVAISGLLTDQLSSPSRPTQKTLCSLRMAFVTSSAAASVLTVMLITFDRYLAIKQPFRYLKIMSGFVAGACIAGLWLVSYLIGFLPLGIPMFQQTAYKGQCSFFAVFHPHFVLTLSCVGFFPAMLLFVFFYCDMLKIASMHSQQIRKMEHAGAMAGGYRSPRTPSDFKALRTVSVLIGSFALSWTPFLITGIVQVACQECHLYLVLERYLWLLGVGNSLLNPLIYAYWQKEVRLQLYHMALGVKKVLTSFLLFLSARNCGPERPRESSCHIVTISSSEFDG
Kind of data set: Intracellular cAMP increase in human GPR119 introduced cells (Pharmacological Experiments 1 and 2). It is filed as cell-based. The note with it: for GPR119 agonist effect: result in words, refers to Tables 12 and 13.
Excerpt: The GPR119 agonist effect is studied by measuring the effect of an analyte on increase of intracellular amount of cAMP in human GPR119 introduced cells. The testing method is described below.
Human GPR119 gene (NM 178471) is purchased from ATCC (ATCC No. 10807349), and is amplyfied according to PCR to form BamHI site at 5′ side and Apa I site at 3′ side. The forward side primer is […] (sequence No. 1), and the reverse side primer is […] (sequence No. 2). The PCR conditions are described below.
(§1) The double-stranded DNA is thermally denatured using a DNA polymerase (KOD-Plus-Ver. 2; TOYOBO #KOD-211) at 98° C. for 10 seconds in one cycle. The denatured single-stranded DNA is annealed with the primers at 55° C. for 30 seconds. The DNA is subjected to an extension reaction at 68° C. for 1 minute and 15 seconds. The above-mentioned steps are repeated in 35 cycles. The PCR product is inserted into pcDNA5/FRT/TO (Invitrogen #V6520-20) plasmid. Flp-in T-Rex-293 cells (Invitorogen #R78007) are transfected with the obtained plasmid. The method of transfection is conducted in accordance with the protocol of the product.
The stable cell line expressing human GPR119 prepared in the above-mentioned method is plated on a 96-well plate at the concentration of 2,500 cells/well using Dulbecco's Modified Eagle Medium (DMEM) containing 10% fetal bovine serum (FBS). Twenty-four hours after plating, tetracyclin (Invitrogen #Q10019) is added at the final concentration of 20 ng/mL to induce hGPR119 gene expression. Twenty-four hours after, the medium is removed, and the cells are stimulated with an assay buffer (0.5 mM IBMX PBS(−)) containing the test compound at 37° C. for 30 minutes. The amount of the intracellular cAMP is measured using a commercially available kit (HitHunter™ cAMP XS+ Assay: GE Healthcare #90007503) and a reader (FLUOstar Optima: BMG LABTECH). The test compound is dissolved in 100% DMSO, and added at the final concentration of 1%.
Human GPR119 gene (NM 178471) was purchased from ATCC (ATCC No. 10807349), and is amplyfied according to PCR to form BamHI site at 5′ side and Apa I site at 3′ side. The primers were […] (sequence No. 1) and […] (sequence No. 2). The PCR conditions are described below.
as §1, with “was” for “is”, “were” for “are”
The stable cell line expressing human GPR119 prepared in the above-mentioned method was plated on a 96-well plate at the concentration of 2,500 cells/well using Dulbecco's Modified Eagle Medium (DMEM) containing 10% fetal bovine serum (FBS). Twenty-four hours after plating, tetracyclin (Invitrogen #Q10019) was added at the final concentration of 20 ng/mL to induce hGPR119 gene expression. Twenty-four hours after, the medium was removed, and the cells were stimulated with an assay buffer (0.5 mM IBMX PBS (−)) containing the test compound at 37° C. for 30 minutes. The amount of the intracellular cAMP was measured using a commercially available kit (HitHunter™ cAMP XS+ Assay: GE Healthcare #90007503) and a reader (FLUOstar Optima: BMG LABTECH). The test compound was dissolved in 100% DMSO, and added at the final concentration of 1%.
The examination was performed by the method similar to Example 61 Pharmacological experiment 1-(1), 1-(2).

Where [1] appears, read: Table 12, Flp-in T-Rex-293 cells stably expressing hGPR119, intracellular cAMP, 37° C. for 30 minutes, read-out: EC50.
The mark [2] stands for this setting: Table 13, Pharmacological experiment 2, method similar to Example 61, read-out: EC50.

Turning to `CC(C)(C)OC(=O)N1CCC(c2cnc(Cn3ccc4cc(S(C)(=O)=O)ccc43)cn2)CC1` [Example 9, tert-Butyl 4-[5-(5-methanesulfonylindol-1-ylmethyl)pyrazin-2-yl]piperidine-1-carboxylate], the “Inhibition rate (%)” value with normal mice (1 mg/kg oral, male ICR mice, area under glycemic excursion curve 0-120 min after glucose 3 g/kg, versus vehicle) was determined as 31.1%. Moreover, in the data set on normal mice (result in words, refers to Table 14), the “inhibitory effect on glycemic excursions” value was “excellent inhibitory effect on glycemic excursions”. In addition, the EC50 at human GPR119 (setting [1]) was determined as 13.8 nM. In addition, the GPR119 agonist effect result on human GPR119 was “excellent GPR119 agonist effect”.
On to `CC(C)(C)OC(=O)N1CC=C(c2cnc(COc3ccc(-n4cncn4)cc3)cn2)CC1` [Example 13, tert-Butyl 4-[5-[4-(1,2,4-triazol-1-yl)phenoxymethyl]pyrazin-2-yl]-3,6-dihydro-2H-pyridine-1-carboxylate], for which the melting point fell in the range of 152 to 154 °C. For the same compound, the EC50 on human GPR119 (setting [1]) was 130 nM.
The matching figures for `CC(C)(C)OC(=O)N1CC=C(c2cnc(COc3ccc(S(C)(=O)=O)c(F)c3F)cn2)CC1` [Example 18, tert-Butyl 4-[5-(2,3-difluoro-4-methanesulfonylphenoxymethyl)pyrazin-2-yl]-3,6-dihydro-2H-pyridine-1-carboxylate]: 176 to 179 °C and 110 nM.
On to `CC(C)(C)OC(=O)N1CCC(c2cnc(Cn3ccc4cc(-n5cnnn5)cc(F)c43)nc2)CC1` [Example 49, tert-Butyl 4-[2-[7-fluoro-5-(tetrazol-1-yl)indol-1-ylmethyl]pyrimidin-5-yl]piperidine-1-carboxylate], for which the response at human GPR119 was half-maximal at 30.1 nM (EC50).
Still for that read-out and setting: with `CC(C)OC(=O)N1CCC(c2cnc(Cn3ccc4cc(-n5cnnn5)cc(F)c43)nc2)CC1` [Example 50, Isopropyl 4-[2-[7-fluoro-5-(tetrazol-1-yl)indol-1-ylmethyl]pyrimidin-5-yl]piperidine-1-carboxylate] the figure was 17.4 nM.
On to `CS(=O)(=O)c1cc(F)c2c(ccn2Cc2cnc(C3CCN(c4ncc(Br)cn4)CC3)cn2)c1` [Example 51, 5-Bromo-2-[4-[5-(7-fluoro-5-methanesulfonylindol-1-ylmethyl)pyrazin-2-yl]piperidine-1-yl]pyrimidine], for which the EC50 on human GPR119 (setting [2]) worked out at 5.4 nM. For the same compound, the GPR119 agonist effect entry at human GPR119 is on record as “excellent GPR119 agonist effect”.
Turning to `Fc1cc(-n2cnnn2)cc2ccn(Cc3cnc(C4CCN(c5ncc(Br)cn5)CC4)cn3)c12` [Example 54, 5-Bromo-2-[4-[5-[7-fluoro-5-(tetrazol-1-yl)indol-1-ylmethyl]pyrazin-2-yl]piperidin-1-yl]pyrimidine], the EC50 at human GPR119 (setting [2]) was determined as 14.2 nM.
